The text below walks through data of patent publication US8962580B2, “Chemical modifications of monomers and oligonucleotides with cycloaddition” (Alnylam Pharmaceuticals, Inc., priority 2008, dated 2015).

Where two headings read alike, the source gives them in different places. {L125} = ligand L125 of the publication, structure not given; d = 2'-deoxy (DNA); m = 2'-O-methyl; r = 2'-OH (RNA)

In the series the test system is firefly luciferase gene. The experiment in a line: Dual-luciferase assay for RNA interfering evaluation. The note with it: for IC50: read-out: IC 50 Values. Type of series: cell-based. The procedure:
1. Dual-Luciferase Assay for RNA Interfering Evaluation
Modified RNAs obtained by solid-phase synthesis and click reactions were evaluated in RNA interfering in dual-luciferase assays. Duplexes were prepared by heating at 95° C. for 2 min and cooling to room temperature for 2 hours in 1X Phosphate buffered saline. (Table 12-14).
The ability of modified siRNAs to suppress gene expression was studied by a dual-luciferase assay using a pGL4 vector (Promega), which contained the Renilla and firefly luciferase genes. The siRNA sequences were designed to target the firefly luciferase gene. Stably transfected HeLa cells were then transfected with the indicated amounts of siRNAs, and the signals of firefly luciferase were normalized to those of renilla luciferase. HeLa SS6 cells were stably transfected with plasmids encoding firefly (target) and Renilla (control) luciferases.
RNA interference methods: Hela cells were grown at 37° C., 5% CO2 in Dulbecco's modified Eagles's medium (DMEM, GIBCO) supplemented with 10% fetal bovine serum (FBS) and 1% antibiotic. The cells were maintained in the exponential growth phase. The cells were then plated in 96-well plates (0.1 mL medium per well) to reach about 90% confluence at transfection. Transfection was allowed to proceed for 24 hr at 37° C. and on day 2 the culture medium was changed to OPTIMEM 1, a reduced serum media (GIBCO). Two luciferase plasmids, Renilla luciferase (pRL-CMV) and firefly luciferase (pGL3) from Promega, were used as control and reporter, respectively. Transfection of siRNAs was carried out with Lipofectamine 2000 (Invitrogen) as described by the manufacturer for adherent cell lines. The final volume was 150 uL per well. On day 2 cells are transfected with, firefly luciferase targeting, siRNA of varying concentrations ranging from 2 pM to 8 nM mediated by Lipofectamine 2000 reagent (Invitrogen). After 24 h, cells were analyzed for both firefly and renilla luciferase expression using a plate luminometer with a delay time of 2 s and an integrate time of 10 s. (VICTOR2, PerkinElmer, Boston, Mass.) and the Dual-Glo Luciferase Assay kit (Promega), FIG. 24. Firefly/renilla luciferase expression ratios were used to determine percent gene silencing relative to untreated (no siRNA) controls. Values generated represent the mean of triplicates.
The screening process began with a primary screen where all the compounds were screened against the parent unmodified duplex as a comparison. […] The final set of compounds was compared to one of our best modifications AD3202 and it can be seen that these compounds match up to AD 3202 in potency, however the exact mechanism by which the Uda modification contributes to improved activity is to be determined through further studies.
Dual HeLa (HeLa cells transfected with PGL4 plasmid for luciferase expression)
Tissue culture medium, trypsin and Lipofectamine-2000—purchased from Invitrogen (Carlsbad, Calif.).
DMEM supplemented with 10% fetal bovine serum, 1% antibiotic solution.
siRNA treatment was performed using Opti-MEM (Invitrogen) containing 1 mg/ml Lipofectamine2000
DMEM without phenol red, Promega Dual Glo Luciferase Assay kit, 0.25% Trypsin (Invitrogen).

Where [1] appears, read: Table 13 (Part II), stably transfected HeLa cells, Lipofectamine 2000, 24 h, firefly/renilla luciferase ratio.
The mark [2] stands for this setting: Table 12 (Part I), stably transfected HeLa cells, Lipofectamine 2000, 24 h, firefly/renilla luciferase ratio.

For “AD-1000: parent unmodified siRNA duplex: sense 1000 CUUACGCUGAGUACUUCGAdTdT, antisense 1001 UCGAAGUACUCAGCGUAAGdTdT (sense CUUACGCUGAGUACUUCGATT; antisense UCGAAGUACUCAGCGUAAGTT; sugars from the 5' end r19 d2, backbone not given here) [reference compound]”, the IC50 was 0.38 nM under setting [1]; 0.326 nM (Table 14 (Part III), stably transfected HeLa cells, Lipofectamine 2000, 24 h, firefly/renilla luciferase ratio); 0.242 nM (Table 15 (Part IV), selected potent duplexes, secondary screen / head to head comparison).
As to “AD-20156: siRNA duplex: sense 33031.1 CUUACGCUGAGUACUUCGAdT(Uda2p), antisense 1001; Uda2p-3′end (sense CUUACGCUGAGUACUUCGAT; antisense UCGAAGUACUCAGCGUAAGTT; Uda2p 3' end on sense, chemistry not fully specified)”, the IC50 under setting [1] turned out to be 1.18 nM.
On to “AD-20157: siRNA duplex: sense 33032.1 CUUACGCUGAG(Uda)ACUUCGAdT(Uda2p), antisense 1001; U12-->Uda, Uda2p-3′end (sense CUUACGCUGAGUACUUCGAT; antisense UCGAAGUACUCAGCGUAAGTT; U12 Uda, Uda2p 3' end on sense, chemistry not fully specified)”, for which the “IC 50 Values (nM)” value under setting [1] was “NA—out”.
“AD-20158: siRNA duplex: sense 33033.1 C(Uda)UACGCUGAGUACUUCGAdT(Uda2p), antisense 1001; U2-->Uda, Uda2p-3′end (sense CUUACGCUGAGUACUUCGAT; antisense UCGAAGUACUCAGCGUAAGTT; U2 Uda, Uda2p 3' end on sense, chemistry not fully specified)”: under “Table 13 (Part II), parent AD-1000”, the “Fold Increase in activity as compared to parent” value was 2 fold. Moreover, under setting [1], the IC50 was determined as 1.5 nM.
Turning to “AD-20201: siRNA duplex: sense 36862 CUUACGCUGAGUACUUCGAdTdTL125, antisense 1001; 3′ L125 (sense CUUACGCUGAGUACUUCGATT; antisense UCGAAGUACUCAGCGUAAGTT; 3' L125 on sense, chemistry not fully specified)”, the IC50 under setting [2] came out at 0.922 nM.
For the substance “AD-20202: siRNA duplex: sense 37075 CUUACGCUGAGUACUUCGAdTdT(T1y), antisense 1001; 3′ (Tly) (sense CUUACGCUGAGUACUUCGATTT; antisense UCGAAGUACUCAGCGUAAGTT; 3' (Tly) on sense, chemistry not fully specified)”, the IC50 under setting [2] was 1.12 nM.
“AD-20203: siRNA duplex: sense 37077 CUUACGCUGAGUACUUCGAdTdT(T31y), antisense 1001; 3′ (T31y) (sense CUUACGCUGAGUACUUCGATT; antisense UCGAAGUACUCAGCGUAAGTT; 3' (T31y) on sense, chemistry not fully specified)”: the IC50 under setting [2] amounted to 1.41 nM.
Regarding “AD-20321: siRNA duplex: sense 38103.1 AAcGcuGGGcGuuAAucAAdTdTL125 (2′OMe-all Py and 3′ L125), antisense 24599 UUGAUuAACGCCcAGCGUUdTsdT (sense AACGCUGGGCGUUAAUCAATT; antisense UUGAUUAACGCCCAGCGUUTT; sense: DNA at T, 2'-O-methyl at CU, RNA at AG, 3' {L125}, backbone not given here; antisense: sugars from the 5' end rrrrrmrrrrrrmrrrrrrdd, backbone not given here)”, the “IC 50 Values (nM)” value under setting [2] is listed as “out of range”.
